In ChEMBL document CHEMBL1201862, “PubChem BioAssay data set” (2004):
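A five-concentration, 48-hour dose response in 96-well plates underlies each endpoint, interpolated linearly between surrounding concentrations. GI50 is the concentration that inhibits growth by half.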 Active and inactive are the calls of the source. Rule as the data show it: active = GI50 up to about 1.1 µM and inactive = higher.

What was measured:
Assay in all cases: NCI tumour cell line growth inhibition, 48 h
[1] = test system: IGROV-1
[2] = test system: NCI-H522
[3] = test system: OVCAR-8
[4] = test system: Hs-578T
[5] = test system: MOLT-4
[6] = test system: SN12C
[7] = test system: DU-145
[8] = test system: MCF7
[9] = test system: BT-549
[10] = test system: SK-MEL-2
[11] = test system: NCI-H460
[12] = test system: TK-10
[13] = test system: Malme-3M
[14] = test system: ACHN
[15] = test system: SK-MEL-5
[16] = test system: A498
[17] = test system: HOP-62
[18] = test system: RXF 393
[19] = test system: SW-620
[20] = test system: SF-539
[21] = test system: KM12
[22] = test system: CCRF-CEM
[23] = test system: PC-3
[24] = test system: SK-MEL-28
[25] = test system: U-251
[26] = test system: MDA-MB-231
[27] = test system: NCI-H23
[28] = test system: HCC 2998
[29] = test system: OVCAR-5
[30] = test system: NCI/ADR-RES
[31] = test system: MDA-MB-435
[32] = test system: UACC-257
[33] = test system: HCT-15
[34] = test system: T47D
[35] = test system: SF-295
[36] = test system: OVCAR-3
[37] = test system: 786-0
[38] = test system: SNB-75
[39] = test system: MDA-N
[40] = test system: OVCAR-4
[41] = test system: RPMI-8226
[42] = test system: UO-31
[43] = test system: A549
[44] = test system: NCI-H226
[45] = test system: HCT-116
[46] = test system: EKVX
[47] = test system: CAKI-1
[48] = test system: SNB-19
[49] = test system: K562
[50] = test system: M14
[51] = test system: SF-268
[52] = test system: HL-60
[53] = test system: UACC-62
[54] = test system: HT-29
[55] = test system: COLO 205
[56] = test system: LOX IMVI
[57] = test system: SK-OV-3
[58] = test system: HOP-92
[59] = test system: SR

N#Cc1cccc(Nc2ccccc2SSc2ccccc2Nc2cccc(C#N)c2)c1
GI50 [1]: 8.65 µM (inactive) | GI50 [2]: 8.11 µM (inactive) | GI50 [3]: 8.11 µM (inactive) | GI50 [4]: 6.97 µM (inactive) | GI50 [5]: 3.13 µM (inactive) | GI50 [6]: 7.59 µM (inactive) | GI50 [7]: 19 µM (inactive) | GI50 [8]: 7.52 µM (inactive) | GI50 [9]: > 10 µM (inactive) | GI50 [10]: > 10 µM (inactive) | GI50 [11]: 7.71 µM (inactive) | GI50 [12]: 19.3 µM (inactive) | GI50 [13]: 11 µM (inactive) | GI50 [14]: 8.73 µM (inactive) | GI50 [15]: 9.04 µM (inactive) | GI50 [16]: 9.89 µM (inactive) | GI50 [17]: 11.9 µM (inactive) | GI50 [18]: > 10 µM (inactive) | GI50 [19]: 3.48 µM (inactive) | GI50 [20]: 8.79 µM (inactive) | GI50 [21]: 9.46 µM (inactive) | GI50 [22]: 2.94 µM (inactive) | GI50 [23]: 4.82 µM (inactive) | GI50 [24]: 13.3 µM (inactive) | GI50 [25]: 5.92 µM (inactive) | GI50 [26]: 12.2 µM (inactive) | GI50 [27]: 11.7 µM (inactive) | GI50 [28]: 16.6 µM (inactive) | GI50 [29]: 17.5 µM (inactive) | GI50 [30]: 8.79 µM (inactive) | GI50 [31]: 8.69 µM (inactive) | GI50 [32]: 13.6 µM (inactive) | GI50 [33]: 10.4 µM | GI50 [34]: 12.3 µM (inactive) | GI50 [35]: 13.2 µM (inactive) | GI50 [36]: 9.12 µM (inactive) | GI50 [37]: 3.91 µM (inactive) | GI50 [38]: 8.59 µM (inactive) | GI50 [39]: 9.23 µM (inactive) | GI50 [40]: 10.7 µM (inactive) | GI50 [41]: 3.93 µM (inactive) | GI50 [42]: 4.97 µM (inactive) | GI50 [43]: 11.3 µM (inactive) | GI50 [44]: 10.3 µM (inactive) | GI50 [45]: 9.06 µM (inactive) | GI50 [46]: 13.9 µM (inactive) | GI50 [47]: 9.02 µM (inactive) | GI50 [48]: 7.76 µM (inactive) | GI50 [49]: 5.12 µM (inactive) | GI50 [50]: 7.55 µM (inactive) | GI50 [51]: 4.93 µM (inactive) | GI50 [52]: 4.76 µM (inactive) | GI50 [53]: 7.1 µM (inactive) | GI50 [54]: 11.4 µM (inactive) | GI50 [55]: > 10 µM (inactive) | GI50 [56]: 2.73 µM (inactive) | GI50 [57]: 13.5 µM (inactive) | GI50 [58]: 7.89 µM (inactive)

CC(C)(C)[Si](C)(C)OCC1OC(n2cnc3c(N)ncnc32)C(O)C1O (configuration not stated)
GI50 [1]: > 100 µM (inactive) | GI50 [2]: > 100 µM (inactive) | GI50 [3]: > 100 µM (inactive) | GI50 [4]: 44.5 µM (inactive) | GI50 [5]: 39.6 µM (inactive) | GI50 [6]: > 100 µM (inactive) | GI50 [7]: > 100 µM (inactive) | GI50 [8]: > 100 µM (inactive) | GI50 [9]: 69.5 µM (inactive) | GI50 [10]: > 100 µM (inactive) | GI50 [11]: > 100 µM (inactive) | GI50 [12]: > 100 µM (inactive) | GI50 [13]: > 100 µM (inactive) | GI50 [14]: > 100 µM (inactive) | GI50 [15]: 26.5 µM (inactive) | GI50 [17]: > 100 µM (inactive) | GI50 [18]: 36.7 µM (inactive) | GI50 [19]: > 100 µM (inactive) | GI50 [20]: > 100 µM (inactive) | GI50 [21]: 37.3 µM (inactive) | GI50 [22]: 95.9 µM (inactive) | GI50 [23]: 43.5 µM (inactive) | GI50 [59]: 60.8 µM (inactive) | GI50 [24]: > 100 µM (inactive) | GI50 [25]: > 100 µM (inactive) | GI50 [26]: 96.4 µM (inactive) | GI50 [27]: 71 µM (inactive) | GI50 [29]: > 100 µM (inactive) | GI50 [30]: 87.7 µM (inactive) | GI50 [31]: > 100 µM (inactive) | GI50 [32]: > 100 µM (inactive) | GI50 [33]: > 100 µM | GI50 [34]: 24.4 µM (inactive) | GI50 [35]: > 100 µM (inactive) | GI50 [36]: 76 µM (inactive) | GI50 [37]: > 100 µM (inactive) | GI50 [38]: 59.8 µM (inactive) | GI50 [39]: > 100 µM (inactive) | GI50 [40]: > 100 µM (inactive) | GI50 [41]: 81.3 µM (inactive) | GI50 [42]: 65.6 µM (inactive) | GI50 [43]: > 100 µM (inactive) | GI50 [44]: > 100 µM (inactive) | GI50 [45]: > 100 µM (inactive) | GI50 [46]: > 100 µM (inactive) | GI50 [47]: > 100 µM (inactive) | GI50 [48]: > 100 µM (inactive) | GI50 [49]: 70.6 µM (inactive) | GI50 [50]: > 100 µM (inactive) | GI50 [51]: > 100 µM (inactive) | GI50 [52]: > 100 µM (inactive) | GI50 [53]: 22.1 µM (inactive) | GI50 [54]: > 100 µM (inactive) | GI50 [55]: > 100 µM (inactive) | GI50 [56]: > 100 µM (inactive) | GI50 [57]: 30.7 µM (inactive)

NC(Cc1ccccc1)C(=O)O (stereo not drawn) [DL-PHENYLALANINE]
GI50 [1]: > 100 µM (inactive) | GI50 [2]: > 100 µM (inactive) | GI50 [3]: > 100 µM (inactive) | GI50 [4]: > 100 µM (inactive) | GI50 [5]: > 100 µM (inactive) | GI50 [6]: > 100 µM (inactive) | GI50 [7]: > 100 µM (inactive) | GI50 [8]: > 100 µM (inactive) | GI50 [9]: > 100 µM (inactive) | GI50 [10]: > 100 µM (inactive) | GI50 [11]: > 100 µM (inactive) | GI50 [12]: > 100 µM (inactive) | GI50 [13]: > 100 µM (inactive) | GI50 [14]: > 100 µM (inactive) | GI50 [15]: > 100 µM (inactive) | GI50 [16]: > 100 µM (inactive) | GI50 [17]: > 100 µM (inactive) | GI50 [18]: > 100 µM (inactive) | GI50 [19]: > 100 µM (inactive) | GI50 [20]: > 100 µM (inactive) | GI50 [21]: > 100 µM (inactive) | GI50 [22]: > 100 µM (inactive) | GI50 [23]: > 100 µM (inactive) | GI50 [24]: > 100 µM (inactive) | GI50 [25]: > 100 µM (inactive) | GI50 [26]: > 100 µM (inactive) | GI50 [27]: > 100 µM (inactive) | GI50 [28]: > 100 µM (inactive) | GI50 [29]: > 100 µM (inactive) | GI50 [30]: > 100 µM (inactive) | GI50 [31]: > 100 µM (inactive) | GI50 [32]: > 100 µM (inactive) | GI50 [33]: > 100 µM | GI50 [34]: > 100 µM (inactive) | GI50 [35]: > 100 µM (inactive) | GI50 [36]: > 100 µM (inactive) | GI50 [37]: > 100 µM (inactive) | GI50 [38]: > 100 µM (inactive) | GI50 [39]: > 100 µM (inactive) | GI50 [40]: > 100 µM (inactive) | GI50 [41]: > 100 µM (inactive) | GI50 [42]: > 100 µM (inactive) | GI50 [43]: > 100 µM (inactive) | GI50 [44]: > 100 µM (inactive) | GI50 [45]: > 100 µM (inactive) | GI50 [46]: > 100 µM (inactive) | GI50 [47]: > 100 µM (inactive) | GI50 [48]: > 100 µM (inactive) | GI50 [49]: > 100 µM (inactive) | GI50 [50]: > 100 µM (inactive) | GI50 [51]: > 100 µM (inactive) | GI50 [52]: > 100 µM (inactive) | GI50 [53]: > 100 µM (inactive) | GI50 [54]: > 100 µM (inactive) | GI50 [55]: > 100 µM (inactive) | GI50 [56]: > 100 µM (inactive) | GI50 [57]: > 100 µM (inactive) | GI50 [58]: > 100 µM (inactive)
